The nature of data set [1]: Pharmacokinetics of free drugs in Sprague-Dawley rats. The class given is in vivo, rat. The note with it: for C0 / Cmax / AUC(0-t): rat, blood, female Sprague-Dawley rats; for AUC(0-t): read-out: AUC0-last ± SE. Here is the method:
(§1) Blood samples were collected at […], 1, 2, 8, 24, 32, 48, and 72 hour post-dose. Levels of free drug (I) and (II) were measured by LC-MS/MS and non-compartmental pharmacokinetic analysis was conducted using Phoenix WinNonlin Version 6.4 (Pharsight Corporation). The PK of free drug (I) could not be estimated due to the fact that concentrations of (I) increased from 2 to 8 hours and were undetectable thereafter.

Data set [2] concerns Igrov1 cells. Put plainly: In vitro cell killing (ADCs, free drugs), Igrov1 cells. The class given is cell-based.
Procedure: The candidate antibody-drug conjugates were tested in cell killing on FolRα-expressing cells, including KB, Igrov1, HeLa and JEG3.
Data set [3] in a line: Body weight of rats given free drugs. Format: in vivo, rat. The note with it: free drug (I) 0.4 and 1 mg/kg; free drug (II) 0.4 mg/kg; IV bolus. Here is the method:
as §1, with “To assess the pharmacokinetic profile of free drug (I), female Sprague-Dawley rats (mean body weight 250 g) were given either a 0.4 mg/kg or 1 mg/kg dose by IV bolus administration (N=three animal per dose level) via an indwelling jugular vein catheter. Blood” for “Blood”

Data set [4] has as its system P-glycoprotein (PgP). Put plainly: Free drug cell killing on PgP over-expressing MES-SA/MX2 cells with or without PgP inhibitor GF120918. The class given is cell-based. The note with it: human, MES-SA/MX2 cells (PgP over-expressing). The text has this: (§2) To evaluate if free drug (I) is specifically a substrate of P-glycoprotein (PgP), which is responsible for cisplatin-resistance in some of the ovarian cancer cell lines (Stordal et al. 2012. PLoS One 7(7)), the free drug cell killing activities were investigated on PgP over-expressing MES-SA/MX2 cell line and the parental MES-SA cells. The cell killing activity of free drug (I), free drug (II) and a control free drug (MMAE, designated “III”) on the PgP-overexpressing MES-SA/MX2 cells were reduced by different levels compared to their activity on parental MES-SA cells. The MES-SA/MX2 cells were also treated with PgP inhibitor GF120918 (5 μM) to further investigate if the observed cell killing reduction is contributed by the presence of PgP on the cell surface.

Data set [5] concerns MES-SA/MX2 cells (PgP over-expressing). Described as above. The following applies: for change in cell killing EC50 in the presence and absence of PgP inhibitor GF120918: GF120918 5 μM. Format: cell-based.
Source text: as §2

For data set [6], the system named is MES-SA cells. Put plainly: Free drug cell killing on parental MES-SA cells. Format: cell-based. The note with it: MEA-SA (parental) cells, No GF120918.
Source text: as §2

Data set [7] has as its system A549 cells. Put plainly: In vitro cell killing (ADCs, free drugs), FolRα-negative A549 cells. The class given is cell-based.
Source text: Cytotoxic activities of the two ADC molecules were compared in the presence of excess un-conjugated “naked” antibody as competitior, on cells that were positive FolRα expression (Igrov1 and OVCAR3) and on cells that were negative for FolRα expression (A549).
For data set [8], the system named is cell line tested. Put plainly: Free drug in vitro cytotoxicity, various cell lines. The class given is cell-based.
The subject of data set [9] is FOLR1-positive Igrov1 cells. Put plainly: Secondary antibody cell killing assay, Igrov1 cells. The class given is cell-based. The following applies: Table 9; for EC50: read-out: Igrov 2° Antibody Cell Killing, Nb-SC239 EC50.
Source text: FOLR1-positive KB cells were obtained from ATCC, and FOLR1-positive Igrov1 cells were obtained from NIH. The cells were maintained in Ham's F-12: high glucose DMEM (50:50) (Corning, Cellgro-Mediatech) supplemented with 10% heat-inactivated fetal bovine serum (Corning, Cellgro-Mediatech, Manassas, Va.), 1% Penicillin/Streptomycin (Corning, Cellgro-Mediatech, Manassas, Va.) and 2 mmol/L-glutamax (Thermo Fisher Scientific, Waltham, Mass.). Adherent cells were washed twice with calcium and magnesium-free Hanks Balanced Salt Solution (HBSS), harvested with HYQ® TASE™ (Hyclone; Thermo Fisher Scientific, Waltham, Mass.) and counted by the Vi-CELL Cell Viability Analyzers (Beckman Coulter, Indianapolis, Ind.). A total of 625 cells were seeded in each well of a 384-well flat bottom white polystyrene plate. Lead antibodies were formulated at 4-fold starting concentration in the cell culture medium and filtered through MultiScreenHTS 96-Well Filter Plates (Millipore; Billerica, Mass.). […] Assay plates were cultured at 37° C. in a CO2 incubator for 120 hrs before assay. For cell viability measurement, 30 μL of Cell Titer-Glo® reagent (Promega Corp. Madison, Wis.) was added into each well, and plates were processed as per product instructions. Relative luminescence was measured on an ENVISION® plate reader (Perkin-Elmer; Waltham, Mass.). Relative luminescence readings were converted to percent viability using untreated cells as controls. Data was fitted with non-linear regression analysis, using a log(inhibitor) vs. response-variable slope, 4 parameter fit with GraphPad Prism (GraphPad v 5.0, Software; San Diego, Calif.). Data was expressed as relative cell viability (ATP content) % vs. dose of antibody.
The target in data set [10] is T1, human FOLR1-HIS (Homo sapiens, UniProt P15328).
T1 construct: HIS
T1 sequence (P15328 25-234): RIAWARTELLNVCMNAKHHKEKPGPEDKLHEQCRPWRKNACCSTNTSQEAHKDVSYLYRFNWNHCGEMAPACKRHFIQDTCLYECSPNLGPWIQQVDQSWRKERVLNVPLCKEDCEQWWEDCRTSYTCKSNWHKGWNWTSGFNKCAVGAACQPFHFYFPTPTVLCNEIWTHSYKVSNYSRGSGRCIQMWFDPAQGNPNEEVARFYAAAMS
Put plainly: Biacore kinetics (surface plasmon resonance). Format: binding. The following applies: humanized 6D1 (2060) antibodies, Table 9. Here is the method: Anti-Fc polyclonal antibodies were immobilized onto a CM5 chip (GE Life Sciences) using amine coupling chemistry (from Amine Coupling Kit, GE Life Sciences). The immobilization steps were carried out at a flow rate of 25 μL/min in 1×HBS-EP+ buffer (GE Life Sciences; 10× Stock diluted before use). The sensor surfaces were activated for 7 min with a mixture of N-hydroxysuccinimide (NHS, 0.05 M) and 1-ethyl-3-(3-dimethylaminopropyl)-carbodiimide (EDC, 0.2 M). The anti-Fc polyclonal antibodies were injected over all 4 flow cells at a concentration of […]/mL in 10 mM sodium acetate, pH 4.5, for 7 min. Ethanolamine (1 M, pH 8.5) was injected for 7 min to block any remaining activated groups. An average of 12,000 response units (RU) of capture antibody was immobilized on each flow cell.
Off-rate and kinetic binding experiments were performed at 25° C. using 1×HBS-EP+ buffer. Test and control antibodies were injected over the anti-Fc surface at concentrations of 5-10 μg/mL for 12 seconds at a flow rate of 10 μL/min on flow cells 2, 3 and 4, followed by a buffer wash for 30 seconds at the same flow rate. Kinetic characterization of antibody samples was carried out with a single concentration of antigen (for off-rate ranking) or a 1:2 dilution series of antigen (for kinetic characterization) and 1 injection of 0 nM antigen. […] Between each ligand capture and analyte binding cycle, regeneration was carried out using 2 injections of 10 mM glycine pH 2.0 for 30 seconds at 30 μL/min, followed by a 30 second buffer wash step.
The data were fit with the Biacore T200 Evaluation software, using a 1:1 Langmuir binding model. KD (affinity, nM) was determined as a ratio of the kinetic rate constants calculated from the fits of the association and dissociation phases.
On the technique in general: SPR reads the build-up and loss of mass on a sensor chip optically.

Setting [11] is: MEA-SA/MX2 cells (PgP over-expressing), No GF120918.
Setting [12] is: MEA-SA/MX2 cells, with PgP inhibitor GF120918 (5 μM).

The source of these data is patent US10596270B2, “Anti-folate receptor antibody conjugates, compositions comprising anti-folate receptor antibody conjugates, and methods of making and using anti-folate receptor antibody conjugates” (Sutro Biopharma, Inc., priority 2017, dated 2020).

Like-named read-outs stand apart in the source and are kept apart here. Square brackets hold non-standard residues; d marks the D form. Peptide text beside a SMILES is read from it. * marks the point of attachment. Dolaproine = CO[C@@H]([C@@H]1CCCN1)[C@@H](C)C(=O)O; Dil = CC[C@H](C)[C@H](NC)[C@@H](CC(=O)O)OC; X1 = C[C@@H](N*)[C@@H](O)c1ccccc1; NMeV = CN[C@H](C(=O)O)C(C)C

As usually defined, the Cmax is the peak of the concentration-time curve. One may read the EC50 as the concentration needed to bring the measured effect to its halfway point. As to `CN[C@H](C(=O)N[C@H](C(=O)N(C)[C@H](/C=C(\C)C(=O)O)C(C)C)C(C)(C)C)C(C)(C)c1cccc(N)c1` [free drug (I)], the “plasma level of free drug after dosing” value in data set [1] (0.4 or 1 mg/kg IV bolus, data not shown) is “undetectable at 24 hours post dose”. Besides, in [1] (IV bolus), the “clearance relative to the other free drug” value is recorded as “more rapid than that of free drug (II)”. Also, in data set [1] (Table 28), the “PK of free drug (I) in rat vs. free drug (II)” value is “Free drug (I) has faster clearance”. The C0 was determined as 6.81 ng/mL in [1] (IV bolus, dose level 0.1 mg/kg) and 15.5 ng/mL in data set [1] (IV bolus, dose level 0.4 mg/kg). Moreover, the Cmax amounted to 5.82 ± 0.69 ng/mL in [1] (IV bolus, dose level 0.1 mg/kg) and 12.8 ± 2.1 ng/mL in [1] (IV bolus, dose level 0.4 mg/kg). The AUC(0-t) in [1] (IV bolus, dose level 0.1 mg/kg) was 11 ± 2.1 ng·h/mL; in data set [1] (IV bolus, dose level 0.4 mg/kg), 23.9 ± 2.6 ng·h/mL. Moreover, the 50% effective concentration (EC50) in data set [2] (Homo sapiens, IGROV-1) is 2.4 nM; in data set [4] (with GF120918 (5 μM), MEA-SA/MX2 cells, with PgP inhibitor GF120918 (5 μM)) it was 6.4 nM; in [4] (setting [11]) it was 50 nM; in [6] (Homo sapiens, MES-SA), 6 nM; in [7] (Homo sapiens, A549) it was 11 nM; in data set [8] (depending on the cell line tested, read-out: cytotoxic activity in vitro EC50), 0.5 to 20 nM. In addition, the Span in data set [2] (Igrov1 cells, Table 26) worked out at 92%; in [5] (setting [11]), 100%; in data set [5] (setting [12]), 99%; in data set [6] it was 100%; in data set [7] (A549 cells, Table 26, NK = No Killing), 81%. In [3], the “body weight of the animals” value is reported as “did not have an effect on the body weight”. The “change in cell killing EC50 in the presence and absence of PgP inhibitor GF120918” value in data set [5] was 8 fold. Also, the “cytotoxic activity of released free drugs” value in data set [8] (in words) was “comparable cytotoxic activity”.

As to `CC[C@H](C)[C@@H]([C@@H](CC(=O)N1CCC[C@H]1[C@H](OC)[C@@H](C)C(=O)N[C@H](C)[C@@H](O)c1ccccc1)OC)N(C)C(=O)[C@@H](NC(=O)[C@@H](NC)C(C)C)C(C)C` [free drug (III), MMAE] (H-[NMeV]V[Dil][Dolaproine]-X1), the “change in cell killing EC50 in the presence and absence of PgP inhibitor GF120918” value in data set [5] was determined as 111 fold. Moreover, the concentration giving a half-maximal response (EC50) turned out to be 111 nM in data set [5] (setting [11]), 1 nM in data set [5] (setting [12]) and 0.75 nM in [6]. Moreover, the values for the Span in [5] (setting [11]), in data set [5] (setting [12]) and in [6] were 100%, 99% and 100%, respectively.

B1: SRP2060-E10: affinity-matured humanized 6D1; VH SEQ ID NO 363; VL H6D1-LC4 SEQ ID NO 368 (antibody, V domains shown)
VH: EVQLLESGGGLVQPGGSLRLSCAFSGFSLSTFGMGVGWVRQAPGKGLEWVSHIWWDDDKYYHPALKGRFTISKDNSKNTVYLQMNSLRAEDTAVYYCGRNHFPHYYGSSHWYFNVWGQGTTVTVSS
VL: EIVMTQSPATLSLSPGERATLSCKASQDINSYLSWYQQKPGQAPRLLIYRANRLVDGIPARFSGSGSGTDYTLTISSLEPEDFAVYYCLQYDEFPYTFGGGTKVEIK
modifications: Synthetic SRP2060-E10, VH; Synthetic H6D1-LC4, VL
For the molecule B1, in [9], the “Igrov 2° Antibody Cell Killing, Nb-SC239 span” value (from here on “Igrov 2° Antibody Cell Killing”) was found to be 68% and the EC50 amounted to 0.061 nM. In data set [10], this molecule had a Biacore kinetics ka of 582000 M⁻¹ s⁻¹ and a Biacore kinetics kd of 0.0012 s⁻¹.

B2: SRP2060-B01 (antibody, V domains shown)
VH: EVQLLESGGGLVQPGGSLRLSCALSGFSLSTFGMGVGWVRQATGKGLEWVSHIWWDDDKYYHPALKGRFTISKDNSKNTVHLQMNSLRAEDTAVYYCGRNHFPHYYGSSHWYFNVWGQGTTVTVSS
VL: DIQMTQSPSTLSASVGDRVTITCKASQDINSYLSWYQQKPGKAPKLLIYRANRLVDGVPSRFSGSGSGTEFTLTISSLQPDDFATYYCLQYDEFPYTFGGGTKVEIK
For B2, in data set [9], the “Igrov 2° Antibody Cell Killing” value is reported as 76% and the EC50 was 0.045 nM. For the same molecule, in [10], the Biacore kinetics ka amounted to 561000 M⁻¹ s⁻¹ and the Biacore kinetics kd was 0.00147 s⁻¹.

B3: SRP2060-E05: affinity-matured humanized 6D1; VH SEQ ID NO 364; VL H6D1-LC4 SEQ ID NO 368 (antibody, V domains shown)
VH: EVQLLESGGGLVQPGGSLRLSCAFSGFSLSTFGMGVGWVRQAPGKGLEWVSHIWWDDDKYYHPALKGRFTVSKDNSKNTVYLQMNSLRAEDTAVYYCGRNHFPHYYGSSHWYFNVWGQGTTVTVSS
VL: EIVMTQSPATLSLSPGERATLSCKASQDINSYLSWYQQKPGQAPRLLIYRANRLVDGIPARFSGSGSGTDYTLTISSLEPEDFAVYYCLQYDEFPYTFGGGTKVEIK
modifications: Synthetic SRP2060-E05, VH; Synthetic H6D1-LC4, VL
Regarding B3, in [9], the “Igrov 2° Antibody Cell Killing” value is listed as 71% and the concentration for a half-maximal effect (EC50) was found to be 0.22 nM. Further, in [10], the Biacore kinetics ka was 541000 M⁻¹ s⁻¹ and the Biacore kinetics kd was found to be 0.00158 s⁻¹.

B4: SRP2060-A06 (antibody, V domains shown)
VH: EVQLLESGGGLVQPGGSLRLSCAFSGFSLSTFGMGVGWVRQAPGKGLEWVGHIWWDDDKYYYPALKGRFTISKDNSKNTVYLQMNSLRAEDTAVYYCGRNHFPHYYGSSHWYFDVWGQGTTVTVSS
VL: DIQMTQSPSTLSASVGDRVTITCKASQDINSYLSWYQQKPGKAPKLLIYRANRLVDGVPSRFSGSGSGTEFTLTISSLQPDDFATYYCLQYDEFPYTFGGGTKVEIK
B4: in data set [9], the “Igrov 2° Antibody Cell Killing” value was determined as 66% and the EC50 was 0.013 nM. Further, in data set [10], the Biacore kinetics ka is 547000 M⁻¹ s⁻¹ and the Biacore kinetics kd was determined as 0.00729 s⁻¹.
